The assay deals with PtpA (Staphylococcus aureus, UniProt P0C5D2). The assay can be described thus: phosphatase activity. The format is biochemical. As to conditions: artificial substrate; conditions not given.

From paper PMC3204379 (Journal of molecular biology, 2011) come the findings set out here.

PtpA, sequence (P0C5D2 whole entry): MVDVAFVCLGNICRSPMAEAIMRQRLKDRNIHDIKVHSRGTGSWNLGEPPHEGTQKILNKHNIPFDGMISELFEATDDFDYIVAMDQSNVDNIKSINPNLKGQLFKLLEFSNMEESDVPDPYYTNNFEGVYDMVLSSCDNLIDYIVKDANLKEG

For `O=[N+]([O-])c1ccc(OP(=O)(O)O)cc1` [para-nitrophenol phosphate], the “phosphatase activity (data not shown)” value is reported as “activity of PtpA with the artificial phosphatase substrate para-nitrophenol phosphate”.
